Experimental findings from patent US7507860B2 (Pfizer Inc., priority 2004, dated 2009) are described below.

Residue numbers refer to the chain shown, from its start. Where two headings read alike, the source gives them in different places.

The target of assay [1] is T1, androgen receptor (Homo sapiens, UniProt P10275).
T1 sequence (P10275 1-920 Q868H): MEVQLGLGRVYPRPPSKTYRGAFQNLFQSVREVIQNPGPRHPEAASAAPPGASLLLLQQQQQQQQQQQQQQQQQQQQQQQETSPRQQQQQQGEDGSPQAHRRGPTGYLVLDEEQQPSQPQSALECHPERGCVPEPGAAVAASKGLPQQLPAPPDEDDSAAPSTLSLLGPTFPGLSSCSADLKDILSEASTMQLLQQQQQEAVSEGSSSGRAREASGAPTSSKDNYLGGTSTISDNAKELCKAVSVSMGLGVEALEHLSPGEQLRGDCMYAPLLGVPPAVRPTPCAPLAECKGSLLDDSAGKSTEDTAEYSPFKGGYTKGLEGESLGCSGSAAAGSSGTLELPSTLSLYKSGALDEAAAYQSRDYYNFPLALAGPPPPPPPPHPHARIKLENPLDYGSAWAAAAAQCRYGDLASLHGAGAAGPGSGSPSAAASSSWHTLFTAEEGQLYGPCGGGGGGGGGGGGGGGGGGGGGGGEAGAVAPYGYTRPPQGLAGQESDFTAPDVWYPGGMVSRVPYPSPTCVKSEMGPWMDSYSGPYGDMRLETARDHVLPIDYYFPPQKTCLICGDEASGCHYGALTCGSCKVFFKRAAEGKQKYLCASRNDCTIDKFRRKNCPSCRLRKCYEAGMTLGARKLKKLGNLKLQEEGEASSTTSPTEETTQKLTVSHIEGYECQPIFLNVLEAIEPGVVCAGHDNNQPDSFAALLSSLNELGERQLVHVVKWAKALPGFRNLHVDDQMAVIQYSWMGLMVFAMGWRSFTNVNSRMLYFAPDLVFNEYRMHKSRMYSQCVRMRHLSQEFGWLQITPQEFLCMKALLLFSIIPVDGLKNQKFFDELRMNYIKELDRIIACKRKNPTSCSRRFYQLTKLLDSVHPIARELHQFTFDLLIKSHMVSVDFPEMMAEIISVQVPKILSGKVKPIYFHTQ
Description: AR antagonist cell assay (MDA-MB453-MMTV clone 54-19 luciferase reporter, 100 pM DHT). Type of assay: cell-based. The note with it: MDA-MB453-MMTV clone 54-19, inhibition of 100 pM DHT induction, 17 hr; mean of multiple tests; read-out: AR Cell IC50. Put shortly:
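MDA-MB453 cells stably carrying an MMTV-ARE firefly luciferase reporter were plated overnight at 10,000/well in phenol-red-free, charcoal-stripped serum medium. Cells were stimulated with 100 pM DHT (final) for 17 hr at 37 °C, and AR antagonism was read as luciferase signal; values are means of multiple tests.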
(A reporter such as luciferase makes a cellular process visible.)

The target of assay [2] is T2, human androgen receptor (hAR) (Homo sapiens, UniProt P10275).
T2 construct: made in house; host or cells: baculovirus/Sf9 insect cells (crude extract)
T2 sequence (P10275 1-920): T1 sequence (P10275 1-920 Q868H) with H868Q
Description: Competitive binding analysis on baculovirus/Sf9 generated hAR extracts with 3H-DHT tracer. The note with it: hAR extract, 1 nM 3H-DHT, one hour at 4° C, mean of multiple tests. Put shortly:
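Baculovirus/Sf9-expressed hAR extract incubated with hydroxylapatite, 1 nM 3H-DHT and decreasing compound concentrations for 1 h at 4 °C, then washed three times to remove unbound tracer. Bound 3H-DHT compared with no-competitor maximum; affinity given as concentration inhibiting half of maximum binding, mean of multiple tests.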

Usually IC50 stands for the concentration at which inhibition is half-maximal. Regarding `CCCC(Oc1ccc(C#N)c(C(F)(F)F)c1)C(=O)NCc1cccc(C)c1` (stereo not shown) [Example 43, 2-(4-Cyano-3-trifluoromethyl-phenoxy)-pentanoic acid-3-methyl-benzylamide], the IC50 was found to be 105 nM in assay [1] and 99 nM in assay [2] (read-out: AR Binding IC50).

In the case of `CCC[C@@H](Oc1ccc(C#N)c(C(F)(F)F)c1)C(=O)NCc1ccccc1C` [Example 96, (R)-2-(Cyano-3-trifluoromethyl-phenoxy)-pentanoic acid 2-methyl-benzylamide], the IC50 in assay [1] is 138 nM; in assay [2] (AR Binding IC50 (nM)), 95 nM.

For the compound `COc1ccc(CNC(=O)C(CC(C)C)Oc2ccc(C#N)c(C(F)(F)F)c2)cc1` (stereo not shown) [Example 73, 2-(4-Cyano-3-trifluoromethyl-phenoxy)-4-methyl-pentanoic acid-4-methoxy-benzylamide], the 50% inhibitory concentration (IC50) in assay [1] is 428 nM; in assay [2] (read-out: AR Binding IC50), 92 nM.

Regarding `CC(C)CC(Oc1ccc(C#N)c(C(F)(F)F)c1)C(=O)NCc1cccs1` (stereo not shown) [Example 12, 2-(4-Cyano-3-trifluoromethyl-phenoxy)-4-methyl-pentanoic acid (thiophen-2-yl-methyl)-amide], the IC50 in assay [1] was > 1000 nM; in assay [2] (read-out: AR Binding IC50), 86 nM.

As for `CCN(CCOC)C(=O)C(CC(C)C)Oc1ccc(C#N)c(C(F)(F)F)c1` (stereo not shown) [Example 86, 2-(4-Cyano-3-trifluoromethyl-phenoxy)-4-methyl-pentanoic acid ethyl(2-methoxyethyl)-amide], the half-maximal inhibitory concentration (IC50) in assay [1] is > 1000 nM; in assay [2] (read-out: AR Binding IC50) it was 25 nM.

Regarding `CCC[C@H](Oc1ccc(C#N)c(C(F)(F)F)c1)C(=O)NCCc1ccc(O)cc1` [Example 109], the figures for the IC50 in assay [1] and in assay [2] (read-out: AR Binding IC50) were 58 nM and 251 nM, respectively.

Turning to `CCCC(Oc1ccc(C#N)c(C(F)(F)F)c1)C(=O)NCCOc1ccccc1` (stereo not shown) [Example 56, 2-(4-Cyano-3-trifluoromethyl-phenoxy)-pentanoic acid-(2-phenoxy-ethyl)-amide], the IC50 in assay [1] was determined as 790 nM; in assay [2] (read-out: AR Binding IC50), 157 nM.

Turning to `CCCC(Oc1ccc(C#N)c(C(F)(F)F)c1)C(=O)NCCc1c[nH]c2ccccc12` (stereo not shown) [Example 65, 2-(4-Cyano-3-trifluoromethyl-phenoxy)-pentanoic acid [2-(1H-indol-3-yl)ethyl]amide], the half-maximal inhibitory concentration (IC50) was determined as 64 nM in assay [1] and 33 nM in assay [2] (read-out: AR Binding IC50).

As to `CC(C)CC(Oc1ccc(C#N)c(C(F)(F)F)c1)C(=O)NCc1cccnc1` (stereo not shown) [Example 19, 2-(4-Cyano-3-trifluoromethyl-phenoxy)-4-methyl-pentanoic acid (pyridin-3-yl-methyl)-amide], the IC50 in assay [1] is > 1000 nM; in assay [2] (read-out: AR Binding IC50), 131 nM.

With `COc1ccccc1NC(=O)C(CC(C)C)Oc1ccc(C#N)c(C(F)(F)F)c1` (stereo not shown) [Example 87, 2-(4-Cyano-3-trifluoromethyl-phenoxy)-4-methyl-pentanoic acid (2-methoxy-phenyl)-amide], the values for the IC50 in assay [1] and in assay [2] (read-out: AR Binding IC50) were > 1000 nM and 119 nM, respectively.

Consider `Cc1ccccc1CNC(=O)C(CC(C)C)Oc1ccc(C#N)c(C(F)(F)F)c1` (stereo not shown) [Example 38, 2-(4-Cyano-3-trifluoromethyl-phenoxy)-4-methyl-pentanoic acid-2-methyl-benzylamide], for which the IC50 in assay [1] is > 1000 nM; in assay [2] (read-out: AR Binding IC50), 15 nM.

Turning to `CC(C)CC(Oc1ccc(C#N)c(C(F)(F)F)c1)C(=O)NCC(C)Oc1ccccc1` (stereo not shown) [Example 53, 2-(4-Cyano-3-trifluoromethyl-phenoxy)-4-methyl-pentanoic acid-(2-phenoxypropyl)-amide], the IC50 was determined as 299 nM in assay [1] and 59 nM in assay [2] (read-out: AR Binding IC50).

As for `CC(C)CC(Oc1ccc(C#N)c(C(F)(F)F)c1)C(=O)NCC(c1ccccc1)N(C)C` (stereo not shown) [Example 68, 2-(4-Cyano-3-trifluoromethyl-phenoxy)-4-methyl-pentanoic acid (2-dimethylamino-2-phenyl-ethyl)-amide], the IC50 was > 1000 nM in assay [1] and 223 nM in assay [2] (read-out: AR Binding IC50).

`CCCC(Oc1ccc(C#N)c(C(F)(F)F)c1)C(=O)NCC(C)Oc1ccccc1` (stereo not shown) [Example 55, 2-(4-Cyano-3-trifluoromethyl-phenoxy)-pentanoic acid-(2-phenoxy-propyl)-amide]: the half-inhibitory concentration (IC50) in assay [1] was found to be 393 nM; in assay [2] (read-out: AR Binding IC50), 182 nM.

In the case of `CCCC(Oc1ccc(C#N)c(C(F)(F)F)c1)C(=O)NCc1ccccc1OCC` (stereo not shown) [Example 42, 2-(4-Cyano-3-trifluoromethyl-phenoxy)-pentanoic acid-2-ethoxy-benzylamide], the values for the half-inhibitory concentration (IC50) in assay [1] and in assay [2] (read-out: AR Binding IC50) were > 1000 nM and 139 nM, respectively.

Consider `CSCCNC(=O)C(CC(C)C)Oc1ccc(C#N)c(C(F)(F)F)c1` (stereo not shown) [Example 83, 2-(4-Cyano-3-trifluoromethyl-phenoxy)-4-methyl-pentanoic acid (2-methylsulfanyl-ethyl)-amide], for which the half-inhibitory concentration (IC50) is > 1000 nM in assay [1] and 85 nM in assay [2] (read-out: AR Binding IC50).

`CCCC(Oc1ccc(C#N)c(C(F)(F)F)c1)C(=O)NCCc1ccc(O)cc1` (stereo not shown) [Example 66]: the IC50 in assay [1] is 77 nM; in assay [2] (AR Binding IC50 (nM)), 151 nM.

Turning to `CCC[C@H](Oc1ccc(C#N)c(Cl)c1)C(=O)NCCc1c[nH]c2ccccc12` [Example 106, (S)-2-(3-Chloro-4-cyano-phenoxy)-pentanoic acid [2-(1H-indol-3-yl)-ethyl]-amide], the concentration for half-maximal inhibition (IC50) came to 3 nM in assay [1] and 47 nM in assay [2] (read-out: AR Binding IC50).

For the compound `CCCC(Oc1ccc(C#N)c(C(F)(F)F)c1)C(=O)N[C@@H](C)c1ccc(O)cc1` (stereo in doubt) [Example 118, 2-(4-Cyano-3-trifluoromethyl-phenoxy)-pentanoic acid [1-(4-hydroxy-phenyl)-ethyl]-amide], the IC50 in assay [1] worked out at 589 nM; in assay [2] (read-out: AR Binding IC50), 1010 nM.

Regarding `CCCC(Oc1ccc(C#N)c(Cl)c1)C(=O)OCC` (stereo not shown) [Example 99, 2-(3-Chloro-4-cyano-phenoxy)-pentanoic acid ethyl ester], the figures for the IC50 in assay [1] and in assay [2] (read-out: AR Binding IC50) were 749 nM and 31 nM, respectively.

Consider `COc1cccc(CCNC(=O)C(CC(C)C)Oc2ccc(C#N)c(C(F)(F)F)c2)c1` (stereo not shown) [Example 58, 2-(4-Cyano-3-trifluoromethyl-phenoxy)-4-methyl-pentanoic acid-[2-(3-methoxyphenyl)-ethyl]-amide], for which the IC50 in assay [1] was > 1000 nM; in assay [2] (read-out: AR Binding IC50) it was 64 nM.

As to `CCCC(Oc1ccc(C#N)c(C(F)(F)F)c1)C(=O)NCC` (stereo not shown) [Example 5, 2-(4-Cyano-3-trifluoromethyl-phenoxy)-pentanoic acid ethylamide], the 50% inhibitory concentration (IC50) is > 1000 nM in assay [1] and 277 nM in assay [2] (read-out: AR Binding IC50).

As to `CCCC(Oc1ccc(C#N)c(C(F)(F)F)c1)C(=O)NC(C)Cc1ccsc1` (stereo not shown) [Example 18, 2-(4-Cyano-3-trifluoromethyl-phenoxy)-pentanoic acid (1-methyl-2-thiophen-3-ylethyl)-amide], the half-inhibitory concentration (IC50) in assay [1] came to 815 nM; in assay [2] (read-out: AR Binding IC50), 222 nM.
